In patent publication US10793927B2, “Separation of lignin and sugars from biomass pre-treatment liquors” (Stichting Energieonderzoek Centrum Nederland, priority 2015, dated 2020):

Test: Solubility test of xylose in solvent systems suitable as organosolv treatment liquid
Type: physicochemical
Details: 20° C., stirred 24 h, based on total weight of the xylose added
Description: The solubility of xylose (>99% pure, VWR) in different solvent systems, that are suitable to be used as treatment liquid during organosolv, is tested. Xylose was used as representative of all monomeric sugars, as it is the most abundant carbohydrate found in hemicellulose present in hardwoods and herbaceous biomass and thus in corresponding organosolv liquors. The indicated amount of xylose was added to each solvent system at 20° C. and the suspension was mechanically stirred for 24 h. Hereafter, the saturated solution containing remaining xylose was allowed to settle for 3 h and the liquid was removed. The residue was dried and the amount of undissolved xylose was determined.

xylose not dissolved (acetone (100%), 2.7 wt % xylose added): 99.1 wt %
xylose not dissolved (ethanol (100%), 2.5 wt % xylose added): 82.2 wt %
xylose not dissolved (water/acetone 1.9/98.1 (w/w), 2.7 wt % xylose added): 99.1 wt %
xylose not dissolved (water/acetone 4.9/95.1 (w/w), 2.7 wt % xylose added): 93.0 wt %
xylose not dissolved (water/acetone 8.4/91.6 (w/w), 2.0 wt % xylose added): 79.1 wt %
xylose not dissolved (water/acetone 9.9/90.1 (w/w), 2.3 wt % xylose added): 80.2 wt %
xylose not dissolved (water/ethanol 4.3/95.7 (w/w), 2.2 wt % xylose added): 49.7 wt %
xylose not dissolved (water/ethanol 4.7/95.3 (w/w), 2.3 wt % xylose added): 46.2 wt %
xylose not dissolved (water/ethanol 7.8/92.2 (w/w), 2.3 wt % xylose added): 16.6 wt %
xylose not dissolved (water/ethanol 9.7/90.3 (w/w), 2.3 wt % xylose added): 0.0 wt %
Compound: O=C[C@H](O)[C@@H](O)[C@H](O)CO [xylose]
